# Assay results taken from patent publication US20200030242A1, “ORAL DOSAGE FORM WITH DRYING AGENT FOR DELIVERY OF ACTIVE AGENT” (Entrega Inc., priority 2016, published 2020).
# Assay: Surgical Bioavailability Assay
# Type: in vivo, porcine model
# Conditions: neat active agent powder placed via surgical incision, compared to a control oral dosage form
# From the text: “Surgical Bioavailability Assay” as used herein refers to an assay used to determine bioavailability of an active agent using a surgical testing method. In the Surgical Bioavailability Assay, a porcine model is also used, in which the animals undergo open surgery such that oral dosage forms to be tested can be placed at regions of the intestine of interest, such as the jejunum and ileum. After administration of anesthesia, a ventral midline incision is made to gain access to the animal's abdominal cavity. The jejunum and ileum are exposed, and incisions are made to manually place the oral dosage forms being tested. After oral dosage form placement is complete, the intestinal incisions are closed, and the midline incision can also be temporarily closed. Also, access can be made for blood collection via the carotid artery or jugular vein. […] The percent bioavailability of the active agent provided with the oral dosage form is determined on the basis of the active agent levels detected in these blood samples.
# Surgical Bioavailability Assay. […] The percent bioavailability of the active agent provided with the oral dosage form is determined on the basis of the active agent levels detected in these blood samples.
row,Compound,bioavailability (FIG. 4)
1,C[C@@H](O)[C@@H]1NC(=O)[C@H](CCCCN)NC(=O)[C@@H](Cc2c[nH]c3ccccc23)NC(=O)[C@H](Cc2ccccc2)NC(=O)[C@@H](NC(=O)[C@H](N)Cc2ccccc2)CSSC[C@@H](C(=O)N[C@H](CO)[C@@H](C)O)NC1=O [octreotide],good bioavailability
2,calcitonin,good bioavailability
